Reference: patent EP0007672A1, “Isocyanoalkenes, process and useful intermediates for their preparation, pharmaceutical and fungicidal preparations containing those isocyanoalkenes and the use of the fungicidal preparations in agriculture” (GIST-BROCADES N.V., priority 1978, dated 1980)
In brackets after ≈: the same amount, converted by molar mass. Like-named read-outs stand apart in the source and are kept apart here.

How the values were obtained:
Experiment in all cases: MIC (Minimum Inhibitory Concentration)
Type in all cases: cell-based
Candida albicans = tested on: Candida albicans
[1] = tested on: Trichophyton soudanese joyeux; settings: Trichophyton soudanese joyeux 440-63; read-out: MIC values
Trichophyton violoceum = Trichophyton violoceum 442-62; read-out: MIC values
Trichophyton verrucosum = tested on: Trichophyton verrucosum
Trichophyton tonsurans = Trichophyton tonsurans 561-50; read-out: MIC values
Trichophyton rubrum = tested on: Trichophyton rubrum
[2] = tested on: Trichophyton schoenleinii; settings: Trichophyton schoenleinii 435-63; read-out: MIC values
Pasteurella multocida = Pasteurella multocida A 723; read-out: MIC values
[3] = tested on: Streptococcus haemolyticus; settings: Streptococcus haemolyticus A 1088; read-out: MIC values
Trichophyton quickeaneum = Trichophyton quickeaneum A 2040; read-out: MIC values
[4] = tested on: Trichophyton mentagrophytus
Trichophyton equinum = tested on: Trichophyton equinum
[5] = Candida albicans A 7, read-out: MIC values
[6] = Candida albicans A 3140, read-out: MIC values
[7] = Candida albicans A 3141, read-out: MIC values
[8] = Candida albicans A 3142, read-out: MIC values
[9] = Candida albicans A 3143, read-out: MIC values
[10] = Candida albicans A 3144, read-out: MIC values
[11] = Candida albicans A 3145, read-out: MIC values
[12] = Candida albicans A 3165, read-out: MIC values
[13] = Candida albicans A 3166, read-out: MIC values
[14] = Candida albicans A 3167, read-out: MIC values
[15] = Candida albicans A 3168, read-out: MIC values
[16] = Candida albicans A 3169, read-out: MIC values
[17] = Candida albicans A 3171, read-out: MIC values
[18] = Candida albicans A 3184, read-out: MIC values
[19] = Candida albicans A 3190, read-out: MIC values
[20] = Candida albicans A 3191, read-out: MIC values
[21] = Candida albicans A 3192, read-out: MIC values
[22] = Candida albicans A 3194, read-out: MIC values
[23] = Candida albicans A 3196, read-out: MIC values
[24] = Trichophyton verrucosum 134-66, read-out: MIC values
[25] = Trichophyton rubrum 218-65, read-out: MIC values
[26] = Trichophyton rubrum 494-62, read-out: MIC values
[27] = Trichophyton rubrum A 810, read-out: MIC values
[28] = Trichophyton mentagrophytus 367-68, read-out: MIC values
[29] = Trichophyton mentagrophytus 421-67, read-out: MIC values
[30] = Trichophyton mentagrophytus A 3252, read-out: MIC values
[31] = Trichophyton mentagrophytus R 177, read-out: MIC values
[32] = Trichophyton mentagrophytus R 178, read-out: MIC values
[33] = Trichophyton mentagrophytus RRL 305, read-out: MIC values
[34] = Trichophyton equinum 441-51, read-out: MIC values
[35] = Trichophyton equinum 856-71, read-out: MIC values

MIC (Candida albicans; [5]) [µg/mL]	MIC (Candida albicans; [6]) [µg/mL]	MIC (Candida albicans; [7]) [µg/mL]	MIC (Candida albicans; [8]) [µg/mL]	MIC (Candida albicans; [9]) [µg/mL]	MIC (Candida albicans; [10]) [µg/mL]	MIC (Candida albicans; [11]) [µg/mL]	MIC (Candida albicans; [12]) [µg/mL]	MIC (Candida albicans; [13]) [µg/mL]	MIC (Candida albicans; [14]) [µg/mL]	MIC (Candida albicans; [15]) [µg/mL]	MIC (Candida albicans; [16]) [µg/mL]	MIC (Candida albicans; [17]) [µg/mL]	MIC (Candida albicans; [18]) [µg/mL]	MIC (Candida albicans; [19]) [µg/mL]	MIC (Candida albicans; [20]) [µg/mL]	MIC (Candida albicans; [21]) [µg/mL]	MIC (Candida albicans; [22]) [µg/mL]	MIC (Candida albicans; [23]) [µg/mL]	MIC [1] [µg/mL]	Compound	other results
0.8 (≈ 2.52 µM)	0.4 (≈ 1.26 µM)	0.8 (≈ 2.52 µM)	1.5 (≈ 4.72 µM)	1.5 (≈ 4.72 µM)	1.5 (≈ 4.72 µM)	1.5 (≈ 4.72 µM)	1.5 (≈ 4.72 µM)	1.5 (≈ 4.72 µM)	1.5 (≈ 4.72 µM)	0.8 (≈ 2.52 µM)	1.5 (≈ 4.72 µM)	1.5 (≈ 4.72 µM)	1.5 (≈ 4.72 µM)	1.5 (≈ 4.72 µM)	1.5 (≈ 4.72 µM)	1.5 (≈ 4.72 µM)	1.5 (≈ 4.72 µM)	3 (≈ 9.44 µM)	6 (≈ 18.9 µM)	[C-]#[N+]C(=Cc1ccc(Cl)cc1)S(=O)(=O)c1ccc(C)cc1 [Example 11, 1-isocyanv-2-(4-chlorophenyl)-1-(4-toluenesulphonyl)-ethene]	MIC (Trichophyton violoceum): 0.1 µg/mL (≈ 0.315 µM); MIC (Trichophyton verrucosum; [24]): < 0.05 µg/mL; MIC (Trichophyton verrucosum; Trichophyton verrucosum A 2922, read-out: MIC values): 0.4 µg/mL (≈ 1.26 µM); MIC (Trichophyton tonsurans): 6 µg/mL (≈ 18.9 µM); MIC (Trichophyton rubrum; [25]): 1.5 µg/mL (≈ 4.72 µM); MIC (Trichophyton rubrum; [26]): 1.5 µg/mL (≈ 4.72 µM); MIC (Trichophyton rubrum; [27]): 0.8 µg/mL (≈ 2.52 µM); MIC [2]: 0.4 µg/mL (≈ 1.26 µM); MIC (Pasteurella multocida): 6 µg/mL (≈ 18.9 µM); MIC [3]: 3 µg/mL (≈ 9.44 µM); MIC (Trichophyton quickeaneum): 1.5 µg/mL (≈ 4.72 µM); MIC [4, 28]: 1.5 µg/mL (≈ 4.72 µM); MIC [4, 29]: 6 µg/mL (≈ 18.9 µM); MIC [4, 30]: 1.5 µg/mL (≈ 4.72 µM); MIC [4, 31]: 3 µg/mL (≈ 9.44 µM); MIC [4, 32]: > 100 µg/mL; MIC [4, 33]: 1.5 µg/mL (≈ 4.72 µM); MIC (Trichophyton equinum; Trichophyton equinum 182-76, read-out: MIC values): 3 µg/mL (≈ 9.44 µM); MIC (Trichophyton equinum; [34]): 0.4 µg/mL (≈ 1.26 µM); MIC (Trichophyton equinum; [35]): < 0.05 µg/mL
1.5 (≈ 4.38 µM)	3 (≈ 8.76 µM)	3 (≈ 8.76 µM)	3 (≈ 8.76 µM)	1.5 (≈ 4.38 µM)	3 (≈ 8.76 µM)	3 (≈ 8.76 µM)	3 (≈ 8.76 µM)	1.5 (≈ 4.38 µM)	1.5 (≈ 4.38 µM)	3 (≈ 8.76 µM)	3 (≈ 8.76 µM)	3 (≈ 8.76 µM)	1.5 (≈ 4.38 µM)	3 (≈ 8.76 µM)	3 (≈ 8.76 µM)	3 (≈ 8.76 µM)	1.5 (≈ 4.38 µM)	3 (≈ 8.76 µM)	3 (≈ 8.76 µM)	[C-]#[N+]C(=C(C)c1ccc([N+](=O)[O-])cc1)S(=O)(=O)c1ccc(C)cc1 [Example 22, 1-isocyano-2-(4-nitrophenyl)-1-(4-toluenesulphonyl)-1-propene]	MIC (Trichophyton violoceum): 3 µg/mL (≈ 8.76 µM); MIC (Trichophyton verrucosum; [24]): 1.5 µg/mL (≈ 4.38 µM); MIC (Trichophyton tonsurans): 1.5 µg/mL (≈ 4.38 µM); MIC (Trichophyton rubrum; [25]): 3 µg/mL (≈ 8.76 µM); MIC (Trichophyton rubrum; [26]): 6 µg/mL (≈ 17.5 µM); MIC (Trichophyton rubrum; [27]): 3 µg/mL (≈ 8.76 µM); MIC [2]: 3 µg/mL (≈ 8.76 µM); MIC (Pasteurella multocida): 6 µg/mL (≈ 17.5 µM); MIC [3]: 0.8 µg/mL (≈ 2.34 µM); MIC [4, 28]: 3 µg/mL (≈ 8.76 µM); MIC [4, 29]: 12.5 µg/mL (≈ 36.5 µM); MIC [4, 30]: 12.5 µg/mL (≈ 36.5 µM); MIC [4, 31]: 6 µg/mL (≈ 17.5 µM); MIC [4, 32]: 6 µg/mL (≈ 17.5 µM); MIC [4, 33]: 6 µg/mL (≈ 17.5 µM); MIC (Trichophyton equinum; [34]): 1.5 µg/mL (≈ 4.38 µM); MIC (Trichophyton equinum; [35]): 25 µg/mL (≈ 73 µM)
6 (≈ 21 µM)	12.5 (≈ 43.7 µM)	12.5 (≈ 43.7 µM)	12.5 (≈ 43.7 µM)	6 (≈ 21 µM)	6 (≈ 21 µM)	12.5 (≈ 43.7 µM)	6 (≈ 21 µM)	6 (≈ 21 µM)	3 (≈ 10.5 µM)	12.5 (≈ 43.7 µM)	6 (≈ 21 µM)	12.5 (≈ 43.7 µM)	6 (≈ 21 µM)	12.5 (≈ 43.7 µM)	> 100	6 (≈ 21 µM)	12.5 (≈ 43.7 µM)	12.5 (≈ 43.7 µM)	6 (≈ 21 µM)	[C-]#[N+]C(=Cc1cccn1C)S(=O)(=O)c1ccc(C)cc1 [Example 30, 2-[1-isocyano-1-(4-toluenesulphonyl)-ethen-2-yl]-1-methylpyrrole]	MIC (Trichophyton violoceum): 6 µg/mL (≈ 21 µM); MIC (Trichophyton verrucosum; [24]): 6 µg/mL (≈ 21 µM); MIC (Trichophyton tonsurans): 0.4 µg/mL (≈ 1.4 µM); MIC (Trichophyton rubrum; [25]): 50 µg/mL (≈ 175 µM); MIC (Trichophyton rubrum; [26]): > 100 µg/mL; MIC (Trichophyton rubrum; [27]): 50 µg/mL (≈ 175 µM); MIC [2]: 25 µg/mL (≈ 87.3 µM); MIC (Pasteurella multocida): 25 µg/mL (≈ 87.3 µM); MIC [3]: 25 µg/mL (≈ 87.3 µM); MIC [4, 28]: 50 µg/mL (≈ 175 µM); MIC [4, 29]: > 100 µg/mL; MIC [4, 30]: > 100 µg/mL; MIC [4, 31]: 100 µg/mL (≈ 349 µM); MIC [4, 32]: > 100 µg/mL; MIC [4, 33]: > 100 µg/mL; MIC (Trichophyton equinum; [34]): 0.4 µg/mL (≈ 1.4 µM); MIC (Trichophyton equinum; [35]): > 100 µg/mL
